Assay results: US9186344B2, “Glycogen or polysaccharide storage disease treatment method” (Baylor Research Institute, priority 2004, dated 2015)

Test system: FOD patients (CPT I, CACT, CPT II, VLCAD, TFP, LCHAD, SCAD deficiency)
Assay: Odd chain fatty acid (triheptanoin) diet in patients with mitochondrial fat oxidation defects (FOD)
Format: in vivo, human
Details: for Patient mortality / Patient mortality (deaths/patients): C7 Diet
From the text: Other examples of FODs that derive from errors in metabolism include: Carnitine Palmitoyl Transferase I (CPT I) deficiency, Carnitine-Acylcarnitine Translocase (CACT) deficiency, Carnitine Palmitoyl Transferase […] deficiency, very long chain acyl-CoA dehydrogenase (VLCAD) deficiency, Trifunctional Protein (TFP) deficiency, long chain acyl 3-hydroxy CoA dehydrogenase (LCHAD) and short chain acyl CoA dehydrogenase (SCAD) deficiency. Patients having each of these diseases were located and placed on an odd chain fatty acid diet, with informed consent and following under IRB.
The odd chain fatty acid diet and therapy of the present invention was compared to conventional treatments, which include: (1) a low fat, high carbohydrate diet; avoid fasting; frequent or continuous feeding and night time corn starch; or (2) a medium chain triglyceride (MCT oil) for long chain disorders; or (3) insulin and glucose to inhibit lipolysis. However, current treatments fail to treat the hypoglycemia and hepatomegaly (which often persist), the frequency and severity of Rhabdomyolysis; muscle weakness and fatigue are not improved and heart function often remains abnormal. Biochemically, the failure of existing therapies leave patients with impaired Acetyl-CoA production and ketogenesis, there remains an increase Acyl-CoA:CoA (mitochondrion) ratio during illness, a decreased NADH:NAD ratio during illness (mitochondrion), hypoglycemia and hyperammonemia.
Table 4 summarized a comparison of patent mortality for patients with FOD of conventional treatment (based on the literature, see *Neonatal onset; Conventional Diet Rx: JIMD 22: 488,1999), and the odd chain fatty acids of the present invention. There is a demonstrable increase in patient survival across a number of FODs.

[1] = dietary triheptanoin supplementation, FOD patients

## CCCCCCC(=O)OCC(COC(=O)CCCCCC)OC(=O)CCCCCC [C7, triheptanoin]
CACT, neonatal onset
  Patient mortality: 100%
  Patient mortality (deaths/patients): 1/1
LCHAD patients
  retinopathy (Choroideremia): unchanged
LCHAD
  Patient mortality: 0%
  Patient mortality (deaths/patients): 0/9
TFP patients
  peripheral neuropathy: unchanged
TFP
  Patient mortality: 0%
  Patient mortality (deaths/patients): 1/5
VLCAD
  Patient mortality: 5%
  Patient mortality (deaths/patients): 1/19
[1]
  Rhabdomyolysis: marked attenuation of Rhabdomyolysis
  cardiomyopathies: cardiomyopathies were resolved
  glucose homeostasis: normal glucose homeostasis was observed
  hepatomegaly: elimination of hepatomegaly
  mortality: reduced mortality
  muscle strength and endurance: improved muscle strength and endurance
long-chain defects, FIG. 9
  CPK (creatine kinase) levels: rapidly suppresses CPK levels
